#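 Compound exposure: 48 hours, 5 concentrations, 96-well plates. GI50 = concentration required for 50% inhibition of growth.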 Calls of active or inactive are those of the source. Rule as the data show it: active = GI50 up to about 1.1 µM and inactive = higher.
# Tests used:
# Experiment in all cases: NCI-60 cell line screen, 48 h
# 786-0 = system: 786-0
# A498 = system: A498
# ACHN = system: ACHN
# CAKI-1 = system: CAKI-1
# CCRF-CEM = system: CCRF-CEM
# COLO 205 = system: COLO 205
# DU-145 = system: DU-145
# EKVX = system: EKVX
# HCC 2998 = system: HCC 2998
# HCT-15 = system: HCT-15
# HL-60 = system: HL-60
# HOP-62 = system: HOP-62
# HOP-92 = system: HOP-92
# HT-29 = system: HT-29
# Hs-578T = system: Hs-578T
# IGROV-1 = system: IGROV-1
# K562 = system: K562
# KM12 = system: KM12
# LOX IMVI = system: LOX IMVI
# M14 = system: M14
# MCF7 = system: MCF7
# MDA-MB-231 = system: MDA-MB-231
# MDA-MB-435 = system: MDA-MB-435
# MDA-N = system: MDA-N
# MOLT-4 = system: MOLT-4
# Malme-3M = system: Malme-3M
# NCI-H226 = system: NCI-H226
# NCI-H23 = system: NCI-H23
# NCI-H460 = system: NCI-H460
# NCI-H522 = system: NCI-H522
# NCI/ADR-RES = system: NCI/ADR-RES
# OVCAR-3 = system: OVCAR-3
# OVCAR-4 = system: OVCAR-4
# OVCAR-5 = system: OVCAR-5
# OVCAR-8 = system: OVCAR-8
# PC-3 = system: PC-3
# RPMI-8226 = system: RPMI-8226
# RXF 393 = system: RXF 393
# SF-268 = system: SF-268
# SF-295 = system: SF-295
# SF-539 = system: SF-539
# SK-MEL-28 = system: SK-MEL-28
# SK-MEL-2 = system: SK-MEL-2
# SK-MEL-5 = system: SK-MEL-5
# SK-OV-3 = system: SK-OV-3
# SN12C = system: SN12C
# SNB-19 = system: SNB-19
# SNB-75 = system: SNB-75
# SR = system: SR
# SW-620 = system: SW-620
# T47D = system: T47D
# TK-10 = system: TK-10
# U-251 = system: U-251
# UACC-257 = system: UACC-257
# UO-31 = system: UO-31
# A549 = system: A549
# HCT-116 = system: HCT-116
# UACC-62 = system: UACC-62
# BT-549 = system: BT-549
structure (smiles),measurement,setting,value
S=C1C(CCCOCc2ccccc2)C2CCCC23CC2(CCN13)OCCS2 (configuration not stated),GI50,786-0,> 10 µM (inactive)
same,GI50,A498,> 10 µM (inactive)
same,GI50,ACHN,> 10 µM (inactive)
same,GI50,CAKI-1,> 10 µM (inactive)
same,GI50,CCRF-CEM,> 10 µM (inactive)
same,GI50,COLO 205,> 10 µM (inactive)
same,GI50,DU-145,> 10 µM (inactive)
same,GI50,EKVX,> 10 µM (inactive)
same,GI50,HCC 2998,> 10 µM (inactive)
same,GI50,HCT-15,> 10 µM
same,GI50,HL-60,> 10 µM (inactive)
same,GI50,HOP-62,> 10 µM (inactive)
same,GI50,HOP-92,> 10 µM (inactive)
same,GI50,HT-29,> 10 µM (inactive)
same,GI50,Hs-578T,> 10 µM (inactive)
same,GI50,IGROV-1,> 10 µM (inactive)
same,GI50,K562,> 10 µM (inactive)
same,GI50,KM12,> 10 µM (inactive)
same,GI50,LOX IMVI,> 10 µM (inactive)
same,GI50,M14,> 10 µM (inactive)
same,GI50,MCF7,> 10 µM (inactive)
same,GI50,MDA-MB-231,> 10 µM (inactive)
same,GI50,MDA-MB-435,> 10 µM (inactive)
same,GI50,MDA-N,> 10 µM (inactive)
same,GI50,MOLT-4,> 10 µM (inactive)
same,GI50,Malme-3M,> 10 µM (inactive)
same,GI50,NCI-H226,> 10 µM (inactive)
same,GI50,NCI-H23,> 10 µM (inactive)
same,GI50,NCI-H460,> 10 µM (inactive)
same,GI50,NCI-H522,> 10 µM (inactive)
same,GI50,NCI/ADR-RES,> 10 µM (inactive)
same,GI50,OVCAR-3,> 10 µM (inactive)
same,GI50,OVCAR-4,> 10 µM (inactive)
same,GI50,OVCAR-5,> 10 µM (inactive)
same,GI50,OVCAR-8,> 10 µM (inactive)
same,GI50,PC-3,> 10 µM (inactive)
same,GI50,RPMI-8226,> 10 µM (inactive)
same,GI50,RXF 393,> 10 µM (inactive)
same,GI50,SF-268,> 10 µM (inactive)
same,GI50,SF-295,> 10 µM (inactive)
same,GI50,SF-539,> 10 µM (inactive)
same,GI50,SK-MEL-28,> 10 µM (inactive)
same,GI50,SK-MEL-2,> 10 µM (inactive)
same,GI50,SK-MEL-5,> 10 µM (inactive)
same,GI50,SK-OV-3,> 10 µM (inactive)
same,GI50,SN12C,> 10 µM (inactive)
same,GI50,SNB-19,> 10 µM (inactive)
same,GI50,SNB-75,> 10 µM (inactive)
same,GI50,SR,> 10 µM (inactive)
same,GI50,SW-620,> 10 µM (inactive)
same,GI50,T47D,> 10 µM (inactive)
same,GI50,TK-10,> 10 µM (inactive)
same,GI50,U-251,> 10 µM (inactive)
same,GI50,UACC-257,> 10 µM (inactive)
same,GI50,UO-31,> 10 µM (inactive)
CCOC(=O)/C=C/C1(CCOC(C)=O)CCCCC1,GI50,786-0,> 10 µM (inactive)
same,GI50,A549,> 10 µM (inactive)
same,GI50,ACHN,> 10 µM (inactive)
same,GI50,CAKI-1,> 10 µM (inactive)
same,GI50,CCRF-CEM,> 10 µM (inactive)
same,GI50,COLO 205,> 10 µM (inactive)
same,GI50,DU-145,> 10 µM (inactive)
same,GI50,EKVX,> 10 µM (inactive)
same,GI50,HCC 2998,> 10 µM (inactive)
same,GI50,HCT-116,> 10 µM (inactive)
same,GI50,HCT-15,> 10 µM
same,GI50,HL-60,> 10 µM (inactive)
same,GI50,HOP-62,> 10 µM (inactive)
same,GI50,HOP-92,> 10 µM (inactive)
same,GI50,HT-29,> 10 µM (inactive)
same,GI50,Hs-578T,> 10 µM (inactive)
same,GI50,IGROV-1,> 10 µM (inactive)
same,GI50,K562,> 10 µM (inactive)
same,GI50,KM12,> 10 µM (inactive)
same,GI50,LOX IMVI,> 10 µM (inactive)
same,GI50,M14,> 10 µM (inactive)
same,GI50,MCF7,> 10 µM (inactive)
same,GI50,MDA-MB-231,> 10 µM (inactive)
same,GI50,MDA-MB-435,> 10 µM (inactive)
same,GI50,MDA-N,> 10 µM (inactive)
same,GI50,MOLT-4,> 10 µM (inactive)
same,GI50,NCI-H226,> 10 µM (inactive)
same,GI50,NCI-H23,> 10 µM (inactive)
same,GI50,NCI-H460,> 10 µM (inactive)
same,GI50,NCI-H522,> 10 µM (inactive)
same,GI50,NCI/ADR-RES,> 10 µM (inactive)
same,GI50,OVCAR-3,> 10 µM (inactive)
same,GI50,OVCAR-4,> 10 µM (inactive)
same,GI50,OVCAR-5,> 10 µM (inactive)
same,GI50,OVCAR-8,> 10 µM (inactive)
same,GI50,PC-3,> 10 µM (inactive)
same,GI50,RPMI-8226,> 10 µM (inactive)
same,GI50,RXF 393,> 10 µM (inactive)
same,GI50,SF-268,> 10 µM (inactive)
same,GI50,SF-295,> 10 µM (inactive)
same,GI50,SF-539,> 10 µM (inactive)
same,GI50,SK-MEL-28,> 10 µM (inactive)
same,GI50,SK-MEL-2,> 10 µM (inactive)
same,GI50,SK-MEL-5,> 10 µM (inactive)
same,GI50,SK-OV-3,> 10 µM (inactive)
same,GI50,SN12C,> 10 µM (inactive)
same,GI50,SNB-19,> 10 µM (inactive)
same,GI50,SNB-75,> 10 µM (inactive)
same,GI50,SR,> 10 µM (inactive)
same,GI50,SW-620,> 10 µM (inactive)
same,GI50,T47D,> 10 µM (inactive)
same,GI50,TK-10,> 10 µM (inactive)
same,GI50,U-251,> 10 µM (inactive)
same,GI50,UACC-257,> 10 µM (inactive)
same,GI50,UACC-62,> 10 µM (inactive)
same,GI50,UO-31,> 10 µM (inactive)
CN(C)CCSC1=Nc2ccc(Cl)cc2C(c2ccccc2Cl)=NC1,GI50,BT-549,42.3 µM (inactive)
same,GI50,HL-60,30.3 µM (inactive)
same,GI50,Hs-578T,21.4 µM (inactive)
same,GI50,IGROV-1,92.5 µM (inactive)
same,GI50,K562,34.6 µM (inactive)
same,GI50,MDA-MB-435,17.9 µM (inactive)
same,GI50,MOLT-4,31.4 µM (inactive)
same,GI50,OVCAR-4,> 100 µM (inactive)
same,GI50,SK-MEL-2,> 100 µM (inactive)
same,GI50,SNB-75,30.1 µM (inactive)
O=C(OCc1c(-c2ccccc2)nn(-c2ccccc2)c1COC(=O)Oc1ccccc1)Oc1ccccc1,GI50,786-0,> 100 µM (inactive)
same,GI50,A498,> 100 µM (inactive)
same,GI50,A549,> 100 µM (inactive)
same,GI50,ACHN,> 100 µM (inactive)
same,GI50,CAKI-1,> 100 µM (inactive)
same,GI50,CCRF-CEM,> 100 µM (inactive)
same,GI50,COLO 205,> 100 µM (inactive)
same,GI50,DU-145,> 100 µM (inactive)
same,GI50,EKVX,> 100 µM (inactive)
same,GI50,HCC 2998,> 100 µM (inactive)
same,GI50,HCT-116,> 100 µM (inactive)
same,GI50,HCT-15,> 100 µM
same,GI50,HL-60,> 100 µM (inactive)
same,GI50,HOP-62,> 100 µM (inactive)
same,GI50,HOP-92,> 100 µM (inactive)
same,GI50,HT-29,> 100 µM (inactive)
same,GI50,Hs-578T,> 100 µM (inactive)
same,GI50,IGROV-1,> 100 µM (inactive)
same,GI50,K562,> 100 µM (inactive)
same,GI50,KM12,> 100 µM (inactive)
same,GI50,LOX IMVI,> 100 µM (inactive)
same,GI50,M14,> 100 µM (inactive)
same,GI50,MCF7,> 100 µM (inactive)
same,GI50,MDA-MB-231,> 100 µM (inactive)
same,GI50,MDA-MB-435,> 100 µM (inactive)
same,GI50,MDA-N,> 100 µM (inactive)
same,GI50,MOLT-4,> 100 µM (inactive)
same,GI50,Malme-3M,> 100 µM (inactive)
same,GI50,NCI-H226,> 100 µM (inactive)
same,GI50,NCI-H23,> 100 µM (inactive)
same,GI50,NCI-H460,> 100 µM (inactive)
same,GI50,NCI-H522,> 100 µM (inactive)
same,GI50,NCI/ADR-RES,> 100 µM (inactive)
same,GI50,OVCAR-3,> 100 µM (inactive)
same,GI50,OVCAR-4,> 100 µM (inactive)
same,GI50,OVCAR-5,> 100 µM (inactive)
same,GI50,OVCAR-8,> 100 µM (inactive)
same,GI50,PC-3,> 100 µM (inactive)
same,GI50,RPMI-8226,> 100 µM (inactive)
same,GI50,RXF 393,> 100 µM (inactive)
same,GI50,SF-268,> 100 µM (inactive)
same,GI50,SF-295,> 100 µM (inactive)
same,GI50,SF-539,> 100 µM (inactive)
same,GI50,SK-MEL-28,> 100 µM (inactive)
same,GI50,SK-MEL-5,31.8 µM (inactive)
same,GI50,SK-OV-3,> 100 µM (inactive)
same,GI50,SN12C,> 100 µM (inactive)
same,GI50,SNB-19,> 100 µM (inactive)
same,GI50,SNB-75,> 100 µM (inactive)
same,GI50,SR,> 100 µM (inactive)
same,GI50,SW-620,> 100 µM (inactive)
same,GI50,T47D,> 100 µM (inactive)
same,GI50,TK-10,> 100 µM (inactive)
same,GI50,U-251,> 100 µM (inactive)
same,GI50,UACC-257,> 100 µM (inactive)
same,GI50,UACC-62,> 100 µM (inactive)

# From ChEMBL document CHEMBL1201862, “PubChem BioAssay data set” (2004)
